Data taken from EP4768487A1, “FUSED LACTAM RING COMPOUND AND USE THEREOF” (Chengdu Zenitar Biomedical Technology Co., Ltd., priority 2023, dated 2025).

What was measured:
[1] = test system: BRCA wild-type DLD-1 cells; experiment: Anti-proliferative activity against cells (CCK8): DLD-1; assay type: cell-based; conditions: Homo sapiens, 72 h + 96 h culture
Method: BRCA wild-type DLD-1 cells were cultured in an RPMI-1640 medium containing 10% fetal bovine serum, 100 U/mL penicillin, and 100 µg/mL streptomycin, and incubated in an incubator with 5% saturated CO2 at 37 °C. When the cells grew to 80% confluence, they were collected, centrifuged at 300 g for 10 min, and then plated onto a 96-well plate at 1000 cells/well. After 24 h, different final concentrations (0 µM, 1 µM, and 10 µM) of PARPi were added, and the cells were cultured for another 72 h. The cells were subjected to medium exchange treatment (re-supplemented with PARPi at the same final concentrations) and then cultured for another 96 h. The 96-well plate was taken out.

[2] = test system: BRCA-mutated MDA-MB-436 cells; experiment: Anti-proliferative activity against cells (CCK8): MDA-MB-436; assay type: cell-based; conditions: Homo sapiens, 72 h + 96 h culture
PARP1 = target: T1, PARP1 (Homo sapiens, UniProt P09874); experiment: PARP1 enzyme assay (histone-coated plate, chemiluminescence); assay type: biochemical; conditions: PARP1 0.02 nM, DNA 0.8 nM, NAD+ 3.5 µM; read-out: PARP-1 IC50
T1 construct: purchased BPS 80501
Method: 1.1.1. Buffer preparation: PBST: 1× PBS, 0.05% Tween-20; blocking buffer: 1× PBS, 0.05% Tween-20, 5% BSA; reaction buffer: 50 mM Tris-HCl (pH 7.5), 0.005% Tween-20, 0.01% BSA.
1.1.2. Coating: A 50 ng/mL Histone coating solution was prepared with 1× PBS and then transferred to a 384-well reaction plate at 25 µL/well. The plate was coated at 4 °C overnight.
1.1.3. Washing: After the coating was completed, the coating solution was discarded, and the plate was washed with the PBST solution. The method was as follows: PBST was transferred to the 384-well reaction plate at 50 µL/well, and the plate was left to stand for 5 min. The washing solution was then discarded, and the plate was refilled. The washing step was repeated 3 times. Finally, the reaction plate was patted dry and left for the next step of blocking.
1.1.4. Blocking: The blocking buffer was transferred to the 384-well reaction plate at 50 µL/well, and the plate was left to stand for 1 h.
Washing: After the blocking was completed, the blocking buffer was discarded, and the plate was washed 3 times with the PBST solution according to the method in step 2. Finally, the reaction plate was patted dry.
1.1.5. A 1000-fold solution of a compound was prepared and then transferred at 1 µL/well to a 96-well plate containing 199 µL of the reaction buffer. The mixture was well mixed, and then the well mixed compound solution was transferred to the 384-well reaction plate at 5 µL/well. 1.1.6. A 25/10-fold PARP1-DNA solution was prepared with the reaction buffer and then transferred to the 384-well reaction plate at 10 µL/well. For the negative control wells, 10 µL
of the DNA solution was transferred. The final concentrations of PARP1 and DNA were 0.02 nM and 0.8 nM, respectively.
1.1.9. Washing: After the reaction was completed, the reaction solution was discarded, and the plate was washed 3 times with the PBST solution according to the method in step 2. Finally, the reaction plate was patted dry.
1.1.10. A primary antibody (anti-Poly/Mono-ADP Ribose Rabbit mAb) was diluted 2000-fold with the blocking buffer and then added at 20 µL/well.
1.1.11. Washing: The primary antibody was discarded, and the plate was washed 3 times with the PBST solution according to the method in step 2. Finally, the reaction plate was patted dry.
1.1.12. A secondary antibody (anti-rabbit IgG, HRP-linked Antibody) was diluted 2000-fold with the blocking buffer and then added at 20 µL/well.
1.1.13. Washing: The secondary antibody was discarded, and the plate was washed 3 times with the PBST solution according to the method in step 2. Finally, the reaction plate was patted dry.
1.1.14. Color development: Femto-ECL Substrate A and Femto-ECL Substrate B were mixed at a ratio of 1:1, and the mixture was transferred to the 384-well reaction plate at 25 µL/well. 1.1.15. Reading: The chemiluminescence values (RLU) were measured using Envision.

T1 sequence (P09874 whole entry): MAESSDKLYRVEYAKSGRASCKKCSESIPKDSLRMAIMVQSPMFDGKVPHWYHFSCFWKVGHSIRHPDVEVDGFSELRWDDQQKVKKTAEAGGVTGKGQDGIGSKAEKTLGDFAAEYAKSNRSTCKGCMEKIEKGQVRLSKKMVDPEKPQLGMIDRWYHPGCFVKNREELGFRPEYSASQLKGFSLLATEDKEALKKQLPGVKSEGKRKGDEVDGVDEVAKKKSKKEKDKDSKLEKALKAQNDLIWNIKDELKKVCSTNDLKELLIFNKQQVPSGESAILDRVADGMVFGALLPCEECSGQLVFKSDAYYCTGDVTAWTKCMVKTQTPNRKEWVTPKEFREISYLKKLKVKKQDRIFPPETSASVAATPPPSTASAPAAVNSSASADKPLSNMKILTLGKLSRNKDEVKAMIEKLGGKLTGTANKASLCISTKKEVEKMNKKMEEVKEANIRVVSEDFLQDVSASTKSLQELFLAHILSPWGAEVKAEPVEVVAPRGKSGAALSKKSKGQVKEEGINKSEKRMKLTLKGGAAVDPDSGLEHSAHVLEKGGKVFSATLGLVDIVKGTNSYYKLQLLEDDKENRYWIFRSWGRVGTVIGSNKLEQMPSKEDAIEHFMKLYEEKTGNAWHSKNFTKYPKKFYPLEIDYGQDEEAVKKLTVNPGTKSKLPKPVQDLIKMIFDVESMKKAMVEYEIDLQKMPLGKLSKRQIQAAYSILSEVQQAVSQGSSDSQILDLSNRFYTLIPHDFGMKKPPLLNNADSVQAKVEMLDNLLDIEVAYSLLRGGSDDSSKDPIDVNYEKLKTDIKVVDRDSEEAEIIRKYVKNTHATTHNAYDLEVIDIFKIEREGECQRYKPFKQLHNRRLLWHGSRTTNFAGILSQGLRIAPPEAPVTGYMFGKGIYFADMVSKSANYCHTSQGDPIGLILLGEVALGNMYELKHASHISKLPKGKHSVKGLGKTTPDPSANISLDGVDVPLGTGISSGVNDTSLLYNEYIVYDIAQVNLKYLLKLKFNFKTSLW

## Cc1cc2c([nH]c1=O)CC(CN1CCN(c3ccc(C(=O)NC4CC4)nc3F)CC1)OC2 (stereo not shown) [Example 41, N-Cyclopropyl-6-fluoro-5-(4-((3-methyl-2-oxo-1,5,7,8-tetrahydro-2H-pyrano[4,3-b]pyridin-7-yl)methyl)piperazin-1-yl)picolinamide]
[1]
  IC50: > 1000 nM
[2]
  IC50: 16 nM
PARP1
  IC50: 50 to 500 nM

## CCc1cc2c([nH]c1=O)CC(CN1CCN(c3ccc(C(=O)NCC(F)F)nc3F)CC1)OC2 (stereo not shown) [Example 49, N-(2,2-Difluoroethyl)-5-(4-((3-ethyl-2-oxo-1,5,7,8-tetrahydro-2H-pyrano[4,3-b]pyridin-7-yl)methyl)piperazin-1-yl)-6-fluoropicolinamide]
[1]
  IC50: > 1000 nM
[2]
  IC50: 300 nM
PARP1
  IC50: ≤ 50 nM

## CNC(=O)c1ccc(C2=CCN(CC3Cc4[nH]c(=O)c(C5CC5)cc4CO3)CC2)c(Cl)n1 (stereo not shown) [Example 69, 2-Chloro-1'-((3-cyclopropyl-2-oxo-1,5,7,8-tetrahydro-2H-pyrano[4,3-b]pyridin-7-yl)methyl)-N-methyl-1',2',3',6'-tetrahydro-[3,4'-bipyridine]-6-carboxamide]
[1]
  IC50: > 1000 nM
[2]
  IC50: 180 nM
PARP1
  IC50: 50 to 500 nM

## CCc1cc2c([nH]c1=O)CC(CN1CCC(c3ccc(C(=O)NC)nc3F)CC1)OC2 (stereo not shown) [Example 60, 5-(1-((3-Ethyl-2-oxo-1,5,7,8-tetrahydro-2H-pyrano[4,3-b]pyridin-7-yl)methyl)piperidin-4-yl)-6-fluoro-N-methylpicolinamide]
[1]
  IC50: > 1000 nM
[2]
  IC50: 120 nM
PARP1
  IC50: 50 to 500 nM

## CCc1cc2c([nH]c1=O)CC(CN1CCN(c3ccc(C(=O)NC)nc3C)CC1)OC2 (stereo not shown) [Compound 38, 5-(4-((3-Ethyl-2-oxo-1,5,7,8-tetrahydro-2H-pyrano[4,3-b]pyridin-7-yl)methyl)piperazin-1-yl)-N,6-dimethylpicoli namide]
[1]
  IC50: > 1000 nM
[2]
  IC50: 3.5 nM
PARP1
  IC50: ≤ 50 nM

## CCc1cc2c([nH]c1=O)CC(CN1CCN(c3ccc(C(=O)NC4CC4)nc3)CC1)OC2 (stereo not shown) [Compound 4, N-Cyclopropyl-5-(4-((3-ethyl-2-oxo-1,5,7,8-tetrahydro-2H-pyrano[4,3-b]pyridin-7-yl)methyl)piperazin-1-yl) picolinamide]
[1]
  IC50: > 1000 nM
[2]
  IC50: 4 nM
PARP1
  IC50: ≤ 50 nM

## CNC(=O)c1ccc(C2=CCN(C[C@H]3CCc4nc(C)c(=O)[nH]c4C3)CC2)c(F)n1 [Example 46, (S)-2-Fluoro-N-methyl-1'-((2-methyl-3-oxo-3,4,5,6,7,8-hexahydroquinoxalin-6-yl)methyl)-1', 2',3',6'-tetrahydro-[3,4'-bipyridine]-6-carboxamide]
[1]
  IC50: > 1000 nM
[2]
  IC50: 6.7 nM
PARP1
  IC50: ≤ 50 nM

## CNC(=O)c1ccc(C2=CCN(CC3Cc4[nH]c(=O)c(Cl)cc4CO3)CC2)c(F)n1 (stereo not shown) [Example 63, 1'-((3-Chloro-2-oxo-1,5,7,8-tetrahydro-2H-pyrano[4,3-b]pyridin-7-yl)methyl)-2-fluoro-N-met hyl-1',2',3',6'-tetrahydro-[3,4'-bipyridine]-6-carboxamide]
[1]
  IC50: > 1000 nM
[2]
  IC50: 430 nM
PARP1
  IC50: 50 to 500 nM

## CNC(=O)c1ccc(N2CCN(C[C@H]3CCc4nc(C5CC5)c(=O)[nH]c4C3)CC2)cn1 [Example 58, (S)-5-(4-((2-Cyclopropyl-3-oxo-3,4,5,6,7,8-hexahydroquinoxalin-6-yl)methyl)piperazin-1-yl) -N-methylpicolinamide]
[1]
  IC50: > 1000 nM
[2]
  IC50: 140 nM
PARP1
  IC50: ≤ 50 nM

## CNC(=O)c1ccc(C2CCN(C[C@H]3CCc4nc(C)c(=O)[nH]c4C3)CC2)c(F)n1 [Example 80, (S)-6-Fluoro-N-methyl-5-(1-((2-methyl-3-oxo-3,4,5,6,7,8-hexahydroquinoxalin-6-yl)methyl)piperidin-4-yl)picolinamide]
[1]
  IC50: > 1000 nM
[2]
  IC50: 300 nM

## CCc1cc2c([nH]c1=O)C[C@@H](CN1CCN(c3ccc(C(=O)NC)nc3F)CC1)OC2 [Example 65, (S)-5-(4-((3-Ethyl-2-oxo-1,5,7,8-tetrahydro-2H-pyrano[4,3-b]pyridin-7-yl)methyl)piperazin-1-yl)-6-fluoro-N-methylpicolinamide]
[1]
  IC50: > 1000 nM
[2]
  IC50: 0.7 nM
